Reference: US5906922A, “Delivery of nucleic acids” (Commonwealth Scientific and Industrial Research Organisation, priority 1994, dated 1999)
Where two headings read alike, the source gives them in different places. Where a SMILES comes first, the peptide text is derived from it. The star is where a group is joined. NHC(CH2O-Palmitoyl)3 = CCCCCCCCCCCCCCCC(=O)OCC(COC(=O)CCCCCCCCCCCCCCC)(COC(=O)CCCCCCCCCCCCCCC)N*; X1 = CCCCCCCCCCCCCCCC(=O)OCC(CO)(CO)N*

Columns and labels:
[1] = tested on: Cos 1 cells; experiment: Transfection of pSVLCAT, CAT assay, Cos 1; assay type: cell-based, African Green Monkey; conditions: for Transfection (CAT): Table 1, Cos 1, optimised level of agent
[2] = tested on: Cos 1 cells; experiment: β-gal microtitre plate transfection assay, Cos 1; assay type: cell-based, African Green Monkey; conditions: for β-gal (Cos 1): Table 3, Cos 1, highest reading of 72 conditions
Summary of the method: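 Cos 1 cells were transfected with β-galactosidase plasmids (mouse PGK or SV40 early promoter) across varied lipid/DNA ratios in microtitre format. The lipid/DNA ratio giving maximal expression was recorded. Viability was measured with alamar blue or MTS, where higher OD means greater viability.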

[3] = tested on: mammalian cells; experiment: Transfection efficiency, general conclusions over cell lines; assay type: cell-based; conditions: other experiments (not shown)
Description: (§1) Cell lines Cos 1 or CHO were transfected with 0.5 μg of pSVLCAT or 2 μg of pPGKlacZ plasmid using a range of concentrations of each transfection compound. The optimal concentration of compound, that is the concentration giving the highest level of CAT at 48 hours or the greatest percentage of lac z (β-galactosidase) staining cells at 24 hours was used to collate data for Table 1. As all compounds were not tested in a single experiment, absolute figures indicating transfection were not used. Rather, symbols are used to indicate the transfection efficiency relative to Lipofectamine (BRL), which was included as a control in all experiments. Table 1 thus indicates the relative efficiencies of a number of compounds in mediating the transfection of at least one cell type.
The compounds of the generic formula described on page 3 were addressed as consisting of the described basic building blocks: "x, y, R1-R4". These components were systematically varied to assess the optimal building blocks for transfection of standard cell lines in a standard assay system. Results will be presented by the use of example experiments, and shown as the levels of reporter gene expression achieved under standard conditions by either overall levels (CAT or β-galactosidase expression) or as % cells transfected (β-galactosidase--blue cells). Representative levels of cytotoxicity will also be described. […]

[4] = tested on: Cos 1 cells; assay type: cell-based, African Green Monkey
Summary of the method: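 Relative viability of Cos 1 cells exposed to lipid/DNA agents was read as MTS optical density; higher OD means greater viability. Some points came from separate experiments.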

[5] = tested on: CHO cells; experiment: Transfection of pSVLCAT, CAT assay, CHO; assay type: cell-based, Chinese Hamster; conditions: for Transfection (CAT): Table 1, CHO, optimised level of agent
Description: Protocol was the same for Verafectin and Transfectam (see above) with the exception that 0.5 μg of pSVLCAT DNA was used /60 mm dish.
Lipofectamine protocol was according to manufacturer's instructions. 0.5 μg pSVLCAT/60 mm dish. CHO cells seeded 1×10^5 /60 mm dish and adhered overnight in DME/Hams medium with 10% FCS.
Transfectam 5 or 10 μl 1mg/400 μl stock solution.
Lipofectamine 5 or 10 μl 2 mg/ml (mixed formulation 3:1 with DOPE). VerafectinA3 (K3ATP3) and VerafectinG2 (K3G[Glycine]TP2) each at 5, 10 and 15 μl of 2 mM (2.8 and 2.3 mg/ml respectively) stock.
The serum free incubation period in the presence of test agents and DNA was 6 hours, then 1 ml DME/Hams+10% FCS was added. At 24 hrs the medium was changed to 2 ml of fresh DME/Hams+10% FCS until harvest at 48 hrs.
as §1
All test lipopeptide reagents were originally dissolved at 10 mM in 75% DMSO, and subsequently diluted with water to make a 2 mM stock stored at 4° C. Volumes of 2 mM stock lipopeptide ranging from 2 μl to 15 μl were diluted in 500 μl of DDME. 1 μg of plasmid pSVLCAT was separately diluted in 500 μl of DDME. Solutions were combined for 10-20 min at room temperature before adding to 500 μl of DDME in 60 mm dishes of subconfluent CHO cells (2×10^5 day-1) or Cos 1 cells (5×10^5 day-1); washed free of serum with DDME.
Cells were incubated for 6 hrs under standard conditions of 37° C. and 5% CO2 for 6 hours. 1.5 ml of DME/Hams+10% FCS (CHO) or DME+10% FCS (Cos 1) was added to the cells for overnight incubation. Fresh DME/Hams+10% FCS or DME+10% FCS was used to replace the medium for a further 24 hours prior to harvest. Cell lysates were prepared and assayed for CAT activity as described above. For Cos 1 cells, culture supernatants were assayed for CAT activity.
a. Using the standard transfection procedure described above, and 1 μg plasmid pSVLCAT, these formulations were tested on CHO cells at a single concentration equivalent to 10 μl of Verafectin A2 (2 mM) per sample and compared to unformulated compound and Lipofectamine in the same cell type. CAT production was assayed 48 hours after transfection.

[6] = tested on: CHO cells; experiment: Proportion of cells transfected (β-gal staining), CHO; assay type: cell-based, Chinese Hamster
Description: as §1
These conjugates were used to transfect CHO and Cos 1 cells with pPGKlacZNLS for estimation of the proportion of cells transfected. The transfection conditions used were as described above for the CAT experiments with cells being grown in 35 mm dishes for transfection. Cells were seeded the day prior to transfection at a density of 3.4×10^5 /dish (Cos 1) or 6.8×10^4 /dish (CHO). […] Random fields of cells were examined under the light microscope and the proportion of blue (β-GAL expressing) cells was determined. […]

[7] = tested on: Cos 1 cells; assay type: cell-based, African Green Monkey; remark: listed apart in the source
Excerpt: (§2) Relative levels of cytotoxicity caused by the different agents were compared during the experiment using the dye "Alamar Blue" (Alamar, Sacramento Calif.).
(§3) For experiment "c", a plasmid pPGKlaczNLS encoding β-galactosidase under the control of the mouse PGK promoter (kind gift from G.Hannan) or pSVGAL which utilises the SV40 early promoter (Sleigh, M. J. and Lockett, T. J. (1985). EMBO J. 4:3831-3837),was transfected. This experiment and assay were modified from Feigner et al J. Biol Chem. 269(4) 2550-2561 1994. This protocol allows the simultaneous assessment of 72 different combinations and concentrations of DNA and test agent in a microtitre tray. […] Cytotoxicity was assessed using alamar blue, and a sample graph is shown for experiment a.
The ratio of [lipid]/[DNA] at which that maximum was achieved is shown. Experiments shown were carried out in Cos 1 cells, as described above. MTS OD is a measure of relative viabilility of the cells exposed to the different agents, a higher value indicates greater cell viability. * These points were taken from a separate experiment and some slight variation between absolute numbers should be expected between experiments.
(§4) The ratio of [lipid]/[DNA] at which that maximum was achieved is shown in brackets for the two different cell types in the following order; (Cos 1) (CHO). Experiments shown were carried out in Cos 1 cells, as described above. Viability was measured with the dye alamar blue . # Denotes compounds tested in a separate experiment. * Viability in this experiment was determined with MTS. OD is a measure of relative viability of the cells exposed to the different agents, and as with alamar blue, a higher value indicates greater cell viability.

[8] = tested on: Hela cells; experiment: β-gal plate transfection assay, Hela; assay type: cell-based, Human; conditions: 48 hours
Description: Hela cells were seeded in place of Cosl or CHO cells in DME+10% FCS at a density of 2×10^4 /well and transfected with pPGKlaczNLS as described above. At 48 hours, toxicity was determined by alamar blue and the cells processed for the β-gal assay.

[9] = tested on: CHO cells; experiment: β-gal microtitre plate transfection assay, CHO; assay type: cell-based, Chinese Hamster; conditions: Table 3, CHO, highest reading of 72 conditions
Excerpt: as §3
Each of these compounds was tested for transfection ability and cytotoxicity on standard cell lines using standard conditions as described above.
as §4

[10] = tested on: CHO cells; assay type: cell-based, Chinese Hamster
Description: (LEGEND--FIGS. 7, 8 and 9; none; no agent used with plasmid DNA, rb/blank; reagent blank, number following description of compound indicates no. μl of 2 mM stock (diluted with water). 7b: 100% cell survival was taken from dishes which were "mock transfected" with no DNA or transfection agent. 0% viability was assayed in the absence of cells. Viability was assessed using the dye alamar blue.)
as §2, §4

[11] = tested on: Cos 1 cells; experiment: Proportion of cells transfected (β-gal staining), Cos 1; assay type: cell-based, African Green Monkey; conditions: Table 1, Cos 1, % of cells
Description: as §1
These conjugates were used to transfect CHO and Cos 1 cells with pPGKlacZNLS for estimation of the proportion of cells transfected. The transfection conditions used were as described above for the CAT experiments with cells being grown in 35 mm dishes for transfection. Cells were seeded the day prior to transfection at a density of 3.4×10^5 /dish (Cos 1) or 6.8×10^4 /dish (CHO). […] Random fields of cells were examined under the light microscope and the proportion of blue (β-GAL expressing) cells was determined.

CCCCCCCCCCCCCCCC(=O)OCC(CO)(CO)NC(=O)[C@H](C)NC(=O)[C@H](CCCCN)NC(=O)[C@H](CCCCN)NC(=O)[C@@H](N)CCCCN [K3ATP1, trilysine alanine tris monopalmitate] (H-KKKA-X1)
Transfection (CAT) [1]: + | ratio [lipid]/[DNA] at which maximum was achieved ([2]; Table 2, Cos 1): 5.55 | units β-gal ([2]; Table 2, Cos 1, highest reading of 72 conditions): 9.32 × 10^-6 units | ratio [lipid]/[DNA] at which maximum was achieved ([2]; Table 3, Cos 1): 5.55 | β-gal (Cos 1) [2]: 9.32 × 10^-6 | activity relative to tripalmitate K3 molecules [3]: 30% | MTS OD490-655 [4]: 1.34 | Viability (Cos 1) [4]: 1.34 | Transfection (CAT) [5]: +

CCCCCCCCCCCCCCCC(=O)OCC(CO)(COC(=O)CCCCCCCCCCCCCCC)NC(=O)CNC(=O)[C@H](CCCCN)NC(=O)[C@H](CCCCN)NC(=O)[C@@H](N)CCCCN [K3GTP2]
Transfection (βGal) ([6]; Table 1, CHO, % of cells): < 1% | transfection level relative to Lipofectamine ([1]; Experiment 4, Cos 1, 48 hours): ~30% | effect of equimolar DOPE on transfection efficiency ([1]; Experiment 4, Cos 1, compared to VerafectinG2 alone): approximate doubling of transfection efficiency | transfection level with equimolar DOPE relative to Lipofectamine ([1]; Experiment 4, Cos 1, plus equimolar unformulated DOPE): approximately 60% | Transfection (CAT) [1]: ++ | CAT levels relative to Lipofectamine ([5]; Experiment 3, CHO, 5 μl): ~22% | CAT levels relative to Transfectam ([5]; Experiment 3, CHO, 5 μl): approximately 64% | Transfection (CAT) [5]: +++

CCCCCCCCCCCCCCCC(=O)OCC(COC(=O)CCCCCCCCCCCCCCC)(COC(=O)CCCCCCCCCCCCCCC)NC(=O)[C@H](C)N [K0ATP3]
transfection (β-gal assay) ([6]; CHO cells): low levels of transfection | CAT transfection ([5]; "x" peptide experiment a, CHO): no measurable transfection

CCCCCCCCCC(=O)OCC(COC(=O)CCCCCCCCC)(COC(=O)CCCCCCCCC)NC(=O)[C@H](C)NC(=O)[C@H](CCCCN)NC(=O)[C@H](CCCCN)NC(=O)[C@@H](N)CCCCN [K3ATC3]
Viability (Cos 1) [7]: 0.104 | transfection ability, chain length C10 to C16 [8]: transfection ability was seriously curtailed | ratio [lipid]/[DNA] at which maximum was achieved ([2]; Table 3, Cos 1): 2.77 | β-gal (Cos 1) [2]: 9.08 × 10^-6 | β-gal (CHO) [9]: 5.27 × 10^-6 | Viability (CHO) [10]: 0.052

CCCCCCCCCCCCCCCC(=O)OCC(COC(=O)CCCCCCCCCCCCCCC)(COC(=O)CCCCCCCCCCCCCCC)NC(=O)[C@H](C)NC(=O)[C@H](CCCCN)NC(=O)[C@H](CCCCN)NC(=O)[C@H](CCCCN)NC(=O)[C@@H](N)CCCCN [K4ATP3] (H-KKKKA-{NHC(CH2O-Palmitoyl)3})
transfection, one to three palmitates, tetra lysine alanine ([1]; R1-R4 experiment g, Cos 1): more effective than the di or monopalmitate | Transfection (CAT) [1]: +(+) | Transfection (βGal) [11]: < 1% | mean level of CAT activity ([5]; "x" peptide experiment c, CHO, 2 hours incubation of 20 μl lysate): 1071
